This is an account of results in US7968556B2, “Heteroaryl compounds, compositions thereof, and methods of treatment therewith” (Signal Pharmaceuticals, LLC, priority 2006, dated 2011).

pIC50: −log10 of the molar value.

For data set [1], the target named is mTOR (Homo sapiens, UniProt P42345). The experiment in a line: mTOR HTR-FRET Assay. The data set is classed as biochemical. As for the experimental part: The following is an example of an assay that can be used to determine the mTOR inhibitory activity of a test compound. Reagents are prepared as follows:
“Simple TOR buffer” (used to dilute high glycerol TOR fraction): 10 mM Tris pH 7.4, 10 mM NaCl, 0.1% Tween-20, 1 mM DTT (from 1M stock frozen at −20° C. just prior to use). For convenience a large quantity of “Simple TOR buffer” w/o DTT can be stored at 4° C. It can be brought to room temperature and DTT added just prior to dilution of TOR fraction.
5XKB/5XMn/5×ATP solution (used to dilute substrate GST-p70S6kin 81 a.a. just prior to use) (40 ml screen quantity shown):
Enzyme solution: Dilute TOR fraction 1:14 in “Simple TOR Buffer”. For current lot that is 640 μg/ml TOR fraction diluted 14× to yield 45.7 μg/ml TOR in buffer (i.e. 7.85 ml TOR pooled fraction+102.1 ml Simple TOR buffer=110 ml 14× diluted TOR fraction). Each Enzyme Lot must be QC'd prior to assay.
Substrate solution: This may be prepared just prior to assay if preferred. Dilute 5.3 mg/ml GST-p70S6kinase fragment stock to 3.5 μg/ml (97 nM) working stock in 5XKB/5XMn/5×ATP solution (i.e. 26.41 μL (5.3 mg/ml) GST-p70S6+40 ml 5XKB/5XMn/5×ATP=40 ml 3.5 μg/ml (97 nM)).
Assay Buffer (for dilution of Antibodies used in Antibody Detection Reagent):
Antibody Detection Reagent (this reagent should be made just prior to addition to Assay Plates):
Using PlateTrak program (Screen) or Matrix Pipettor (SAR), 19.5 μL of diluted TOR fraction is added to assay plate in all test, reference or positive control wells. 19.5 μL of “Simple TOR buffer” is added to all negative control wells. If treating multiple plates with the same compounds, can increase volume of enzyme to multiples of 19.5 μL in a tall 384 well polypropylene plate.
Using EP3, 0.5 μl of test, reference or control DMSO is added to each well with mixing. Plates are incubated for 30 minutes at room temperature.
Using PlateTrak program (Screen) or Matrix Pipettor (SAR) 5 μL of 5XKB/5XMn/5×ATP/5× substrate solution is added to each well of the assay plate to start the reaction. The solutions are mixed well and incubated for 2 hours at room temperature.
Using PlateTrak program (Screen) or Matrix Pipettor (SAR) 5 μL of 60 mM EDTA is added to stop the reaction. The solutions are mixed well and allowed to sit for 15-20 minutes before the next step.
Using PlateTrak program (Screen) or Matrix Pipettor (SAR) 10 μl of Antibody Detection Reagent is added. The solutions are mixes well and incubated for 5 hours to O/N to allow antibodies to form complexes with phosphorylated substrate.
Plates are read on AnalystHT using protocol Multi-Method protocol.

As to `NC(=O)c1nc(-c2cccc(O)c2)nc2c1[nH]c(=O)n2-c1cccc(F)c1` [Compound 28, 9-(3-fluorophenyl)-2-(3-hydroxyphenyl)-8-oxo-8,9-dihydro-7H-purine-6-carboxamide], the melting point (commonly the temperature, or range, at which the solid turns liquid) was > 375 °C. Besides, the negative logarithm of the IC50 (pIC50) (as a rule, the negative decadic logarithm of the IC50, by convention in mol/L) in data set [1] is < 4.52.

Consider `NC(=O)c1nc(-c2cccc(O)c2)nc2c1[nH]c(=O)n2-c1c(F)cccc1F` [Compound 16, 9-(2,6-difluorophenyl)-2-(3-hydroxyphenyl)-8-oxo-8,9-dihydro-7H-purine-6-carboxamide], for which the melting point is 355 to 358 °C. The molecule further showed a negative-log IC50 (pIC50) in data set [1] of 5.30 to 7.00. Regarding `NC(=O)c1nc(-c2cccc(O)c2)nc2c1[nH]c(=O)n2-c1ccccc1OC(F)(F)F` [Compound 24, 2-(3-hydroxyphenyl)-8-oxo-9-(2-(trifluoromethoxy)phenyl)-8,9-dihydro-7H-purine-6-carboxamide], the negative logarithm of the IC50 (pIC50) in data set [1] was 5.00 to 5.29.

On to `COc1ccccc1-n1c(=O)[nH]c2c(C(N)=O)nc(-c3cccc(C(F)(F)F)c3)nc21` [Compound 20, 9-(2-methoxyphenyl)-8-oxo-2-(3-(trifluoromethyl)phenyl)-8,9-dihydro-7H-purine-6-carboxamide], for which the melting point lay in the range of 271 to 275 °C. The pIC50 in data set [1] was < 4.52.

Molecule `NC(=O)c1nc(-c2cccnc2)nc2c1[nH]c(=O)n2C1CCCCCC1` [Compound 17, 9-cycloheptyl-8-oxo-2-(pyridin-3-yl)-8-9-dihydro-7H-purine-6-carboxamide] had a pIC50 in data set [1] of 5.30 to 7.00. On to `COc1ccc(-c2nc(C(N)=O)c3[nH]c(=O)n(-c4ccccc4OC)c3n2)cn1` [Compound 21, 9-(2-methoxyphenyl)-2-(6-methoxypyridin-3-yl)-8-oxo-8,9-dihydro-7H-purine-6-carboxamide], for which the pIC50 in data set [1] was 4.70 to 5.00. For `COc1ccccc1-n1cnc2c(C(N)=O)nc(-c3cccc(O)c3)nc21` [Compound 39, 2-(3-hydroxyphenyl)-9-(2-methoxyphenyl)-9H-purine-6-carboxamide], the melting point is 257 to 259 °C. This molecule also gave a negative-log IC50 (pIC50) in data set [1] of 4.70 to 5.00. Consider `COc1ccccc1-n1c(=O)[nH]c2c(C(N)=O)nc(C3CCCC3)nc21` [Compound 19, 2-cyclopentyl-9-(2-methoxyphenyl)-8-oxo-8,9-dihydro-7H-purine-6-carboxamide], for which the melting point was in the range of 244 to 246 °C. In data set [1], the negative logarithm of the IC50 (pIC50) was < 4.52.

In turn, `NC(=O)c1nc(-c2cccc(O)c2)nc2c1[nH]c(=O)n2-c1ccc(Cl)cc1Cl` [Compound 25, 9-(2,4-dichlorophenyl)-2-(3-hydroxyphenyl)-8-oxo-8,9-dihydro-7H-purine-6-carboxamide] displayed a melting point of 375 to 377 °C. Moreover, the pIC50 in data set [1] was 5.00 to 5.29. In data set [1], `COc1ccccc1-n1c(=O)[nH]c2c(C(N)=O)nc(-c3cncc(F)c3)nc21` [Compound 30, 2-(5-fluoropyridin-3-yl)-9-(2-methoxyphenyl)-8-oxo-8,9-dihydro-7H-purine-6-carboxamide] showed a pIC50 of 5.00 to 5.29. Same read-out and setting: for `NC(=O)c1nc(-c2cccc(O)c2)nc2c1[nH]c(=O)n2-c1ccc(C(F)(F)F)cc1` [Compound 22, 2-(3-hydroxyphenyl)-8-oxo-9-(4-(trifluoromethyl)phenyl)-8,9-dihydro-7H-purine-6-carboxamide] the value was < 4.52.

Molecule `COc1ccccc1-n1c(=O)[nH]c2c(C(N)=O)nc(-c3cccc([N+](=O)[O-])c3)nc21` [Compound 26, 9-(2-methoxyphenyl)-2-(3-nitrophenyl)-8-oxo-8,9-dihydro-7H-purine-6-carboxamide] registered a melting point of 295 to 296 °C. Moreover, the pIC50 in data set [1] is < 4.52. On to `COc1ccccc1-n1c(=O)[nH]c2c(C(N)=O)nc(C3CCN(Cc4ccccc4)CC3)nc21` [Compound 31, 2-(1-benzylpiperidin-4-yl)-9-(2-methoxyphenyl)-8-oxo-8,9-dihydro-7H-purine-6-carboxamide], for which the negative logarithm of the IC50 (pIC50) in data set [1] is < 4.52. With `COc1ccccc1-n1c(=O)[nH]c2c(C(N)=O)nc(-c3cnc4nc[nH]c4c3)nc21` [Compound 130, 2-(1H-Imidazo[4,5-b]pyridin-6-yl)-9-(2-methoxyphenyl)-8-oxo-8,9-dihydro-7H-purine-6-carboxamide], the melting point was 358 °C (dec.). On the same count and under the same terms, for `NC(=O)c1nc(-c2ccc(-c3nc[nH]n3)cc2)nc2c1[nH]c(=O)n2C1CCCCC1` [Compound 146, 2-(4-(1H-1,2,4-Triazol-3-yl)phenyl)-9-cyclohexyl-8-oxo-8,9-dihydro-7H-purine-6-carboxamide] the value was 375 °C (dec.); for `COc1ccc(F)c(-n2c(=O)[nH]c3c(C(N)=O)nc(-c4cccc(O)c4)nc32)c1` [Compound 149, 9-(2-Fluoro-5-methoxyphenyl)-2-(3-hydroxyphenyl)-8-oxo-8,9-dihydro-7H-purine-6-carboxamide], > 260 °C; for `NC(=O)c1nc(-c2cccc(O)c2)nc2c1[nH]c(=O)n2-c1cccc2[nH]ccc12` [Compound 147, 2-(3-Hydroxyphenyl)-9-(1H-indol-4-yl)-8-oxo-8,9-dihydro-7H-purine-6-carboxamide], > 260 °C. As for `COc1ccccc1-n1c(=O)[nH]c2c(C(N)=O)nc(N[C@H]3CCNC3)nc21` [Compound 106, (S)-9-(2-Methoxyphenyl)-8-oxo-2-(pyrrolidin-3-ylamino)-8,9-dihydro-7H-purine-6-carboxamide], the melting point is > 400 °C.

Regarding `COc1cccc(-n2c(=O)[nH]c3c(C(N)=O)nc(-c4cccc(O)c4)nc32)c1F` [Compound 148, 9-(2-Fluoro-3-methoxyphenyl)-2-(3-hydroxyphenyl)-8-oxo-8,9-dihydro-7H-purine-6-carboxamide], the melting point was > 260 °C. Still for that read-out and setting: for `CC(C)Cc1ccccc1-n1c(=O)[nH]c2c(C(N)=O)nc(-c3cccc(O)c3)nc21` [Compound 161, 2-(3-Hydroxyphenyl)-9-(2-isobutylphenyl)-8-oxo-8,9-dihydro-7H-purine-6-carboxamide] the value was > 260 °C; for `COC[C@H]1CC[C@@H](n2c(=O)[nH]c3c(C(N)=O)nc(-c4cccc(O)c4)nc32)CC1` [Compound 159, 2-(3-Hydroxyphenyl)-9-(cis-4-(methoxymethyl)cyclohexyl)-8-oxo-8,9-dihydro-7H-purine-6-carboxamide], 324 to 326 °C.

Molecule `CC(C)(C)c1ccccc1-n1c(=O)[nH]c2c(C(N)=O)nc(-c3cccc(O)c3)nc21` [Compound 125, 9-(2-tert-Butylphenyl)-2-(3-hydroxyphenyl)-8-oxo-8,9-dihydro-7H-purine-6-carboxamide] came in with a melting point of 294 to 297 °C. Consider `NC(=O)c1nc(-c2cccnc2O)nc2c1[nH]c(=O)n2-c1ccccc1C(F)(F)F` [Compound 129, 2-(2-Hydroxypyridin-3-yl)-8-oxo-9-(2-(trifluoromethyl)phenyl)-8,9-dihydro-7H-purine-6-carboxamide], for which the melting point was in the range of 331 to 335 °C. As to `COc1ccccc1-n1c(=O)[nH]c2c(C(N)=O)nc(-c3ccncc3)nc21` [Compound 75, 9-(2-Methoxyphenyl)-8-oxo-2-(pyridin-4-yl)-8,9-dihydro-7H-purine-6-carboxamide], the melting point fell in the range of 318 to 320 °C. Regarding `COC(=O)c1cccc(-c2nc(C(N)=O)c3[nH]c(=O)n(-c4ccccc4OC)c3n2)c1` [Compound 61, Methyl 3-(6-carbamoyl-9-(2-methoxyphenyl)-8-oxo-8,9-dihydro-7H-purin-2-yl)benzoate], the melting point lay within 265 to 266 °C.
